Measurements: US20240000827A1, “COMPOSITIONS COMPRISING METHYL CYCLODEXTRINS FOR THE TREATMENT AND/OR PREVENTION OF HEPATIC STEATOSIS” (ROQUETTE FRERES, priority 2020, published 2024)

How the values were obtained:
Assay type in all cases: in vivo, Golden Syrian hamster
[1] = test system: genes involved in de novo lipodogenesis, de novo cholesterol synthesis and cholesterol removal; assay: Example 2: messenger RNA expressed in the liver; conditions: liver mRNA at end of study
Experimental: (§1) Male LVG golden Syrian hamsters were used for the studies below. The base feed consisted of the food AO4C sold by the company SAFE diet. In the hypercholesterol diets, cholesterol was added (provided by MP Biomedicals)
(§2) Different cyclodextrins were tested • firstly, hydroxypropyl-β-cyclodextrin (HPBCD) sold by the Applicant under the name “KLEPTOSE® HPB” (oral grade); • secondly, methyl-β-cyclodextrin (MCD) “KLEPTOSE® CRYSMEB”, owned by the Applicant.
(§3) In this study, 40 Golden Syrian origin LVG hamsters were divided into 4 groups of 10 and subjected for 6 weeks to the following diets: • “Control” group: normal diet • “Control HC” group: hypercholesterol diet (containing 2.5% by weight of cholesterol) • “HC+Crysmeb” group: hypercholesterol diet (containing 2.5% by weight of cholesterol)+3% by weight of Crysmeb (MCD) • “HC+HPBCD” group: hypercholesterol diet (containing 2.5% by weight of cholesterol)+3% by weight of HPBCD.
The levels of expression of different genes involved in de novo lipodogenesis (FIG. 3) and in de novo cholesterol synthesis (FIG. 5) and cholesterol removal (FIG. 6) were measured in the liver at the end of the study, in the 4 groups of animals.

[2] = Example 2 preventive effect model: plasma triglyceride levels
Experimental: as §1, §2, §3

[3] = test system: Golden Syrian origin LVG hamsters; assay: Example 2 preventive effect model: biochemical data measured in the liver (lipid storage); conditions: end of the 42 days of treatment, HC diet + 3% cyclodextrin
Experimental: as §1, §2, §3
Table 3 provides the biochemical data measured in the liver of the animals at the end of the 42 days of treatment.

[4] = Example 2 preventive effect model: body weight and organ weights; conditions: hypercholesterol diet (2.5% cholesterol) + 3% by weight cyclodextrin in feed, end of 42 days, N=10
Experimental: as §1, §2, §3
At the end of 42 days of study, the animals were sacrificed and the weight of the various organs was measured.

SMILES: CC(O)COC[C@H]1O[C@@H]2O[C@H]3[C@H](O)[C@@H](O)[C@@H](O[C@H]4[C@H](O)[C@@H](O)[C@@H](O[C@H]5[C@H](O)[C@@H](O)[C@@H](O[C@H]6[C@H](O)[C@@H](O)[C@@H](O[C@H]7[C@H](O)[C@@H](O)[C@@H](O[C@H]8[C@H](O)[C@@H](O)[C@@H](O[C@H]1[C@H](O)[C@H]2O)O[C@@H]8COCC(C)O)O[C@@H]7COCC(C)O)O[C@@H]6COCC(C)O)O[C@@H]5COCC(C)O)O[C@@H]4COCC(C)O)O[C@@H]3COCC(C)O (stereo partly drawn) [HPBCD, hydroxypropyl-β-cyclodextrin]
- expression of genes involved in de novo lipogenesis (FAS, ACC, SCD1, SREBP1) ([1]; FIG. 3): inhibition of the expression of the SCD1 and ACC genes
- expression of genes involved in de novo cholesterol synthesis (SREB2, CYP51a1, HMGCR) ([1]; FIG. 5): little effect
- plasma triglyceride level TG D0 (Average) ([2]; day 0 (beginning of study), HC diet + 3% cyclodextrin): 3.03
- plasma triglyceride level TG D14 (Average) ([2]; day 14, HC diet + 3% cyclodextrin): 1.28
- plasma triglyceride level TG D28 (Average) ([2]; day 28, HC diet + 3% cyclodextrin): 1.23
- plasma triglyceride level TG D43 (Average) ([2]; day 43 (end of study), HC diet + 3% cyclodextrin): 1.58
- % lipids (g of lipid in liver/animal) (Average) [3]: 1.04 g of lipid in liver/animal
- % lipids (g/100 g of liver) D0 (Average) [3]: 23.02 g/100 g of liver
- CHOL (mg of chol in liver/animal) (Average) [3]: 154.19 mg of chol in liver/animal
- CHOL (mg/g liver) (Average) [3]: 32.98 mg/g liver
- TG (mg of TG in liver/animal) (Average) [3]: 92.12 mg of TG in liver/animal
- TG (mg/g liver) (Average) [3]: 22.73 mg/g liver
- weight of the adipose tissue of epididymis (Average) [4]: 1.4
- weight of the liver (Average) [4]: 4.5
